Assay results published in article PMC11395333, “The Bifunctional Dimer Caffeine-Indan Attenuates α-Synuclein Misfolding, Neurodegeneration and Behavioral Deficits after Chronic Stimulation of Adenosine A1 Receptors” (International Journal of Molecular Sciences, 2024).

Assays:
[1] = system: male Sprague-Dawley rats; experiment: Open field test after 7-day chronic i.p. CPA injection; assay type: in vivo, rat
Text: All animals were housed and treated humanely following the guidelines from the following governing bodies: National Research Council (US) Committee for the Update of the Guide for the Care and Use of Laboratory Animals (Washington DC, USA, 2011); Canadian Council on Animal Care (CCAC); and the University of Saskatchewan Animal Research Ethics Board (AREB), which approved our Animal Use Protocol (#20070090 and #20170079). The animals were housed in cages of two, with access to food pellets and water ad libitum. The four treatments of the Sprague-Dawley rats consisted of the following: 1. Control (0.1% DMSO in 0.9% saline); 2. CPA; 3. […] Drugs were dissolved at 3 mg/mL in DMSO, and each drug was administered to the animals by daily i.p. injections (3 mg/kg or 5 mg/kg body weight) for 7 consecutive days. […] Then, on days 8 and 9 following the final injections, the animals were subjected to several behavioral tests. The open field is a general locomotor test that detects anxiety and willingness to explore. The test is conducted in a white open cube measuring 50 cm in length, 50 cm in width and 35 cm in depth. The bottom field is gridded in 4x4 squares at 12.5 cm, with a center square in the middle of the field. The animal is placed in the center square and is free to explore the entirety of the field for 15 min. […] This trial is then used to calculate the percentage of time the animals spent in the center zone (red square) and the total fecal boli count. A video camera was used to record the animal movement in this test. The open field test was conducted after a 1 h resting period from the time the Y-maze second trial was completed. Each experiment was repeated at least ten times per treatment and the average of each treatment is presented in the bar graphs as average means ± SEM.

[2] = system: α-Syn; experiment: Immunohistochemistry and Thioflavin-S staining of brain slices (α-Syn expression and aggregation); assay type: in vivo, rat
Text: All animals were housed and treated humanely following the guidelines from the following governing bodies: National Research Council (US) Committee for the Update of the Guide for the Care and Use of Laboratory Animals (Washington DC, USA, 2011); Canadian Council on Animal Care (CCAC); and the University of Saskatchewan Animal Research Ethics Board (AREB), which approved our Animal Use Protocol (#20070090 and #20170079). The animals were housed in cages of two, with access to food pellets and water ad libitum. The four treatments of the Sprague-Dawley rats consisted of the following: 1. Control (0.1% DMSO in 0.9% saline); 2. CPA; 3. […] Drugs were dissolved at 3 mg/mL in DMSO, and each drug was administered to the animals by daily i.p. injections (3 mg/kg or 5 mg/kg body weight) for 7 consecutive days. […] Then, on days 8 and 9 following the final injections, the animals were subjected to several behavioral tests.
Anesthetized rats were transcardially perfused with 0.9% saline, and then fixed with 4% paraformaldehyde. The extracted brains were put in 30% cryoprotected sucrose solution for 48 h prior to slicing. The brains were initially frozen at −40 °C (BFS-30 mp controllers) and sliced with the help of a microtome (Leica SM2010 R Sliding controller). Coronal slices of 40 μm were then washed three times in 0.1 M phosphate-buffered saline followed by 1 h blocking at room temperature with blocking buffer. The buffer solution components have been previously described. The slices were then incubated overnight at 4 °C with the following primary antibodies: 1:200 mouse monoclonal to α-synuclein (Abcam Inc, Toronto, ON, Canada; Cat# ab280377) and 1:200 rabbit polyclonal to tyrosine hydroxylase (TH) (Millipore-Sigma, Oakville, ON, Canada; Cat# AB152). Subsequently, slices were then incubated for 1 h in the dark at room temperature with the following secondary antibodies (1:1000): AlexaFluor-555-conjugated anti-mouse (Cat# A-21127) and AlexaFluor-647-conjugated anti-rabbit (Cat# A-21244) purchased from Invitrogen (Thermo Fisher Scientific, Waltham, MA, USA). Slices were then treated with Thioflavin-S (see further details below). Lastly, the slices were incubated for 5 min at room temperature with DAPI (2 mg/mL) from Invitrogen (Thermo Fisher Scientific; Cat# R37606) and images were taken using a Zeiss LSM700 confocal microscope (Carl Zeiss Group, Toronto, ON, Canada) and analyzed with ImageJ (Open-Source Public Domain software, United States National Institute of Health (US NIH), Bethesda, MD, USA). Images of the hippocampal CA1 pyramidal layer and the SN pars compacta were obtained using the Zeiss Plan-Apochromat 63X/1.4 oil objective lens (Carl Zeiss Group, Toronto, ON, Canada). Images were acquired as Z-stack images of hippocampal or SN regions with 12–13 Z-stack images taken at 1 µm intervals near the middles of brain slices. Two Z-stack images were taken along the hippocampal CA1 or SN pars compacta region for each slice, and immunofluorescence signals were averaged using densitometry analysis.
Thioflavin-S (Thio-S) is a fluorescent marker (Sigma-Aldrich, Oakville, ON, Canada; Cat# T1892-25G) that detects α-Syn aggregates and amyloid plaques. Coronal slices of 40 μm were firstly treated with 0.3% KMnO4 for 4 min, followed by a 30 min incubation with 1 M phosphate buffered saline at 4 °C. These slices were then stained with 0.05% Thioflavin-S in 50% ethanol in the dark for 8 min, rinsed with 80% ethanol twice, followed by three rinses with ultra-pure water for 30 s. Finally, the slices were incubated again with 1 M phosphate buffered saline for 30 min at 4 °C before starting the DAPI stain. The FITC filter (488 nm laser line) was used to image Thioflavin-S using a Zeiss LSM700 confocal microscope (Carl Zeiss Group, Canada) and images were analyzed with ImageJ (Public Domain).

[3] = system: one- and two-copied α-Syn-Green Fluorescent Protein (GFP) yeast strain; set-up: method as in PMID 27673434; conditions: cited from earlier work
[4] = system: α-Syn; set-up: method as in PMID 27673434; conditions: isothermal titration calorimetry; cited from earlier work
[5] = CPA 3 mg/kg i.p. daily for 7 days, alone

Cn1c(=O)c2c(nc(CCCCCCNC3CCc4ccccc43)n2C)n(C)c1=O (centres unmarked) [C8–6–I]
Open field, fecal boli count ([1]; 3 and 5 mg/kg i.p. with 3 mg/kg CPA, 7 days): significantly decreased the fecal boli count
Open field, exploratory behavior and anxiety ([1]; co-administered with 3 mg/kg CPA, 7 days): improved the exploratory behavior and reduced the anxiety caused by CPA
Thio-S levels in CA1 hippocampus ([2]; 3 mg/kg + CPA): abolished the CPA-induced Thio-S levels
Thio-S levels in SNc ([2]; 3 mg/kg + CPA, compared to control): significant increase in Thio-S levels
Thio-S levels in SNc ([2]; 5 mg/kg + CPA): reached control levels
Thio-S levels in hippocampus ([2]; 5 mg/kg + CPA): moderate but significant Thio-S level increase
α-Syn levels in SNc and CA1 hippocampal region ([2]; co-treatment with 3 mg/kg CPA, 7 days): prevented this α-Syn upregulation
Rescue from α-Syn-induced cell death ([3]; galactose promoter): successful in rescuing the one- and two-copied α-Syn-Green Fluorescent Protein (GFP) yeast strain from α-Syn-induced cell death
Prevention of large α-Syn foci ([3]; one- and two-copied α-Syn-GFP yeast): effective in preventing large α-Syn foci
Binding constant with α-Syn [4]: 53000 M⁻¹
Number of binding sites with α-Syn [4]: one binding site

OC[C@H]1O[C@@H](n2cnc3c(NC4CCCC4)ncnc32)[C@H](O)[C@@H]1O [CPA, N^6-Cyclopentyladenosine, reference compound]
Open field, percentage of time spent in the center square [1, 5]: significantly lower percentage of time spent in the center square
α-Syn levels in SNc and CA1 hippocampal region [2, 5]: markedly increased
Thio-S levels in SNc ([2]; CPA 3 mg/kg i.p. daily for 7 days, alone, compared to control): significant increase in Thio-S levels
